Consider one cell line from the supplement of paper PMC10307832.

What all share (assay): relative viability (nuclei count vs DMSO), 5 days (fraction); higher = more cells survive
Compound in one assay: C[As](C)SC[C@H](NC(=O)CC[C@H](N)C(=O)O)C(=O)NCC(=O)O [Darinaparsin]
The gist of the method: (§1)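 Hoechst staining, done together with fixation and permeabilisation, marked nuclei for 4× imaging and MetaXpress counting. This followed 5 days without medium change after lung cancer cell lines, kept overnight at 37 °C in 1536-well plates, were pinned with five library-drug doses (not always all listed) spaced by √10 on vehicle-anchored plates. Viability is the ratio of treated-well to vehicle-well nuclei, expressed as a median across plates. Plates passed only at control CV below 25% with at least one doubling.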

Compound in another assay: CC1=C(C=C(C=C1)NC(=O)C2=CC(=CC=C2)C(C)(C)C#N)NC3=CC4=C(C=C3)N=CN(C4=O)C [AZ628]
An outline of the steps:
as §1

Compound in the assay “AZ628 + AZD7762”: CC1=C(C=C(C=C1)NC(=O)C2=CC(=CC=C2)C(C)(C)C#N)NC3=CC4=C(C=C3)N=CN(C4=O)C [AZ628] + NC(=O)Nc1cc(-c2cccc(F)c2)sc1C(=O)N[C@H]1CCCNC1 [AZD7762] (partner 0.2 µM)
An outline of the steps: (§2)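 Lung cancer cell lines in 1536-well plates were dosed by pin tool the day after seeding, either with one drug alone or with a fixed anchor-drug dose plus five library-drug doses (not always all listed) in √10 steps. After 5 days, cells were fixed and their nuclei stained in one step (final 0.05% Triton X-100, 1% formaldehyde, 1 ug/ml Hoechst), then counted on 4× images. Relative viability is the nuclei count in treated wells divided by that in vehicle wells. Values are medians of duplicate plates.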

Compound in the assay “QS11 + Dasatinib”: C1CC2=C(C1)C=C(C=C2)OC3=NC(=C4C(=N3)N(C=N4)CC5=CC=C(C=C5)C6=CC=CC=C6)N[C@@H](CC7=CC=CC=C7)CO [QS11] + Cc1nc(Nc2ncc(C(=O)Nc3c(C)cccc3Cl)s2)cc(N2CCN(CCO)CC2)n1 [Dasatinib] (partner 0.075 µM)
The gist of the method:
as §2

Consider LCLC-97TM1, for which the relative viability in the assay with Darinaparsin (0.08 µM) worked out at 1.13; in the assay with Darinaparsin (0.8 µM), 0.834; with Darinaparsin (2.53 µM) it was 1; with Darinaparsin (8 µM), 1.02; in the assay with AZ628 (0.08 µM), 1.17; with AZ628 (0.253 µM) it was 0.849. Besides, the relative viability with AZ628 (0.8 µM) was determined as 0.765; in the assay with AZ628 (2.53 µM), 0.761; in the assay with AZ628 (8 µM), 0.199; with AZ628 + AZD7762 (first compound 0.08 µM) it was 0.307; in the assay with AZ628 + AZD7762 (first compound 0.253 µM), 0.331; with AZ628 + AZD7762 (first compound 0.8 µM) it was 0.243. Besides, the relative viability in the assay with AZ628 + AZD7762 (first compound 2.53 µM) is 0.201; in the assay with AZ628 + AZD7762 (first compound 8 µM) it was 0.108; with QS11 + Dasatinib (first compound 0.08 µM), 0.777; with QS11 + Dasatinib (first compound 0.253 µM) it was 0.932; with QS11 + Dasatinib (first compound 2.53 µM), 0.868; in the assay with QS11 + Dasatinib (first compound 8 µM) it was 1.01.
